The source made the active and inactive calls. No cut-off for these calls is given here.
Experiments:
[1] = system: Abutilon theophrasti; assay: Pre-emergence herbicidal activity against Abutilon theophrasti (velvetleaf) assessed as mortality at 100 g a.i/10 a; format: functional
[2] = Pre-emergence phytotoxicity against Glycine max (soybean) assessed as mortality at 100 g a.i/10 a; format: organism-based; conditions: in vivo
[3] = system: Glycine max; assay: Pre-emergence phytotoxicity against Glycine max (soybean) assessed as mortality at 200 g a.i/10 a; format: organism-based; conditions: in vivo, other
[4] = system: Echinochloa crus-galli; assay: Pre-emergence herbicidal activity against Echinochloa crus-galli (barnyard grass) assessed as mortality at 100 g a.i/10 a; format: functional
[5] = system: Echinochloa crus-galli; assay: Pre-emergence herbicidal activity against Echinochloa crus-galli (barnyard grass) assessed as mortality at 200 g a.i/10 a; format: functional, organism-based
[6] = system: Xanthium strumarium; assay: Pre-emergence herbicidal activity against Xanthium strumarium (cocklebur) assessed as mortality at 200 g a.i/10 a; format: functional, organism-based
[7] = system: Abutilon theophrasti; assay: Pre-emergence herbicidal activity against Abutilon theophrasti (velvetleaf) assessed as mortality at 200 g a.i/10 a; format: functional
[8] = system: Ipomoea lacunosa; assay: Pre-emergence herbicidal activity against Ipomoea lacunosa assessed as mortality at 100 g a.i/10 a; format: functional
[9] = system: Ipomoea lacunosa; assay: Pre-emergence herbicidal activity against Ipomoea lacunosa assessed as mortality at 200 g a.i/10 a; format: functional
[10] = system: Xanthium strumarium; assay: Pre-emergence herbicidal activity against Xanthium strumarium (cocklebur) assessed as mortality at 100 g a.i/10 a; format: functional

Structure (SMILES): CN(C)C(=O)Nc1cccc(C(F)(F)F)c1 [FLUOMETURON]
- mortality at 1000 g/ha [1]: < 5%
- mortality [2]: < 5%
- Activity [3]: Toxic
- mortality at 1000 g/ha [4]: < 5%
- Activity [5]: Active
- Activity [6]: inactive
- mortality at 2000 g/ha [7]: < 5%
- mortality at 1000 g/ha [8]: < 5%
- mortality at 2000 g/ha [9]: < 5%
- mortality at 1000 g/ha [10]: < 5%

— ChEMBL document CHEMBL3046894, “Synthesis and Herbicidal Activity of Pyrimidinyl Salicylic and Thiosalicylic Acids” (J Pestic Sci, 1996)
